# Laboratory results published in article PMC10672842, “Anti-Trypanosoma cruzi Activity, Mutagenicity, Hepatocytotoxicity and Nitroreductase Enzyme Evaluation of 3-Nitrotriazole, 2-Nitroimidazole and Triazole Derivatives” (Molecules, 2023).
# Read-outs that look alike come from different tables or passages of the source.
# Assays:
# [1] = system: T. cruzi (Tulahuen strain); experiment: In vitro anti-T. cruzi evaluation in an intracellular model (trypomastigote and amastigote forms, L929 host cells, β-galactosidase readout); format: cell-based, Trypanosoma cruzi; settings: for IC50: Tulahuen strain, intracellular trypomastigote and amastigote forms in L929 fibroblasts, 96 h, read-out: IC50 T. cruzi; for SI: selectivity index, L929 cells vs T. cruzi
# Procedure: Derivatives 5–10 were evaluated in vitro against T. cruzi in an intracellular model on the trypomastigote and amastigote forms of the parasite of the Tulahuen strain [20]. This model is interesting because it mimics the life cycle of the parasite, as both clinically relevant forms are present in the environment. The mammalian host cells used were fibroblasts from L929 mice.
# This assay was performed as previously described by Buckner et al. (1996) using T. cruzi (Tulahuen strain), which expresses the β-galactosidase gene of Escherichia coli. Infectious trypomastigote forms were obtained by culturing fibroblast monolayers of L929 mice in RPMI-1640 medium (pH 7.2–7.4) without phenol red (Gibco BRL), containing 10% fetal bovine serum and 2 mM glutamine. For the bioassay, 4000 L929 cells in 80 µL of supplemented medium were added to each well of a 96-well microtiter plate. After overnight incubation, 40,000 trypomastigotes in 20 µL were added to the cells and incubated for 2 h. […] The medium was then replaced with compound solutions at 1.0 µg/mL in fresh medium (200 µL), and the plate was incubated for 96 h at 37 °C. After this period, 50 µL of chlorophenol D-galactopyranoside red (500 µM) in 0.5% Nonidet P40 was added to each well, and the plate was incubated for 18 h at 37 °C. After this, the absorbance was measured at 570 nm. Controls with uninfected cells and infected cells treated with benznidazole were performed in parallel. The results are expressed as the percentage of T. cruzi growth inhibition in cells tested with compost compared to infected and untreated cells. The tests were performed in triplicate.
# [2] = In vitro cytotoxicity of L929 cells (AlamarBlue); format: cell-based, mice; settings: mouse, four days
# Procedure: For this bioassay, 4000 mammalian cells in 200 µL of RPMI-1640 medium (pH 7.2–7.4) (Gibco BRL) plus 10% fetal bovine serum and 2 mM glutamine were added to each well of a 96-well microtiter plate, which was incubated for three days at 37 °C. […] After this period, 20 µL of AlamarBlue^TM was added to each well, and the plate was incubated for another 4–6 h. Then, the absorbance was measured at 570 nm. Controls with cells not treated and treated with benznidazole were performed in parallel, and triplicates were performed on the same plate. The results are expressed as the percent difference in the reduction between treated (CT) and untreated cells (UT) using the following equation:(1) 117.216Abs570 TC−80.586(Abs600 TC)/117.216Abs570 UT−80.586(Abs600 UT) × 100
# [3] = system: T. cruzi nitroreductase enzyme (TcNTR); experiment: Kinetic assay with Trypanosoma cruzi nitroreductase enzyme (NADH oxidation); format: biochemical; settings: for Kobs Deriv./Kobs BZN 50 µM: 50 µM derivative
# Procedure: To determine a potential mechanism of action, nitroazole derivatives 5, 6, 8 and 9 were evaluated as substrates of the T. cruzi nitroreductase enzyme (TcNTR) and compared to BZN, the reference prodrug (Table 2). The enzymatic activity was measured by monitoring the oxidation of NADH, the first substrate of the enzyme, via spectrophotometric assays. […] At a concentration of 25 µM, derivatives 5 and 8 were metabolized at rates 2.3 and 2.6 times higher than that of BZN, respectively. At 50 µM, the compounds presented metabolism rates 1.6 and 3.0 times higher than that of BZN, respectively.
# The protocols for expressing, purifying and conducting kinetic analysis with the recombinant TcNTR enzyme were adapted from the methods originally developed by Shane Wilkinson, with certain modifications.
# For the kinetics assays, it was prepared a 200 μL solution which included 50 mM Tris-Base at pH 7.5, with a constant concentration of both NADH (50 μM) and the substances 5, 6, 8, 9 or BZN. Specifically, two distinct fixed concentrations (25 and 50 μM) of the substances 5, 6, 8, 9 or BZN were tested. These prepared mixtures were then incubated for 5 min at room temperature. Subsequently, the reaction was initiated by adding NTR to achieve a final concentration of 10 μg/mL. The reaction rates were monitored using a Hitachi U-2900 spectrophotometer, measuring the consumption of the primary substrate, NADH (λ = 340 nm; ε = 6.220 M^−1 cm^−1), over a 2-min interval. The resulting data curves were analyzed through linear regression using OriginPro 2016 software. To evaluate the reaction rate (Kobs) obtained from the 25 and 50 μM concentrations of each substrate, comparisons were made with the reference values for BZN. Measurement errors were calculated using the formula: Error = Z × σ/√n, where ‘Z’ denotes the critical value, ‘σ’ represents the standard deviation and ‘n’ is the number of test measurements, which were performed at least in triplicate.
# T. cruzi = system: T. cruzi; set-up: method as in PMID 10602737; settings: in vitro; read-out: IC50 against T. cruzi; cited from earlier work
# [4] = Trypanosoma cruzi, TULAHUEN, L929, 96 h
smiles,measurement,setting,value
"O=C(Cn1cnc([N+](=O)[O-])n1)c1ccc(F)cc1F [Compound 5, 1-(2,4-Difluorophenyl)-2-(3-nitro-1H-1,2,4-triazol-1-yl)ethanone]",IC50,[1]; [4],1.8 ± 0.07 µM
same,times more potent against T. cruzi than 6,[1]; ratio of IC50 T. cruzi to 2-nitroimidazole ketone 6,approximately 50
same,SI,[1],667
same,CC50 at 4 days,[2],1200 ± 0.01 µM
same,Kobs Deriv./Kobs BZN 25 µM,"[3]; 25 µM derivative, ratio of mean Kobs to BZN",2.3
same,"consumption rate by TcNTR, times higher than that of 6",[3]; 50 µM,6.6
same,Kobs Deriv./Kobs BZN 50 µM,[3]; ratio of mean Kobs to BZN,1.6
same,melting point,,117 to 119 °C
"O=C(Cn1ccnc1[N+](=O)[O-])c1ccc(F)cc1F [Compound 6, 1-(2,4-Difluorophenyl)-2-(2-nitro-1H-imidazol-1-yl)ethanone]",IC50,[1]; [4],90.9 µM
same,IC50,[1],91 ± 4 µM
same,SI,[1],7
same,CC50 at 4 days,[2],629 ± 61 µM
same,Kobs Deriv./Kobs BZN 50 µM,[3]; ratio of mean Kobs to BZN,0.3
same,melting point,,128 to 130 °C
"O=C(Cn1cncn1)c1ccc(F)cc1F [Compound 7, 1-(2,4-Difluorophenyl)-2-(1H-1,2,4-triazol-1-yl)ethanone]",IC50,[1]; [4],> 200 µM
"OC(Cn1cncn1)c1ccc(F)cc1F (centres unmarked) [Compound 10, 1-(2,4-Difluorophenyl)-2-(1H-1,2,4-triazol-1-yl)ethanol]",IC50,[1]; [4],120 ± 90 µM
same,SI,[1],>27
same,CC50 at 4 days,[2],> 3200 µM
same,melting point,,119 to 121 °C
CC[C@@H]([C@H](C)O)n1ncn(-c2ccc(N3CCN(c4ccc(OC[C@@H]5CO[C@@](Cn6cncn6)(c6ccc(F)cc6F)C5)cc4)CC3)cc2)c1=O [posaconazole],IC50,T. cruzi,< 0.001 µM
